From patent publication US9598387B2 (Southern Research Institute, priority 2012, dated 2017) come the findings set out here.

For orientation: IC50 means the concentration that gives 50% inhibition. Broadly, the Ki is the equilibrium dissociation constant of an inhibitor or competing ligand from its target. Higher therefore signals weaker binding.

For one assay, the target named is human D2 receptors (Homo sapiens (Human), UniProt P14416). Kind of assay: D2 Mitogenesis Functional Assay (3H-thymidine uptake, CHOp-D2 cells). The format is cell-based. The note with it: inhibition of quinpirole (30 nM final) stimulation of mitogenesis; read-out: D2 Antagonist IC50.
Chain of human D2 receptors (P14416 whole entry): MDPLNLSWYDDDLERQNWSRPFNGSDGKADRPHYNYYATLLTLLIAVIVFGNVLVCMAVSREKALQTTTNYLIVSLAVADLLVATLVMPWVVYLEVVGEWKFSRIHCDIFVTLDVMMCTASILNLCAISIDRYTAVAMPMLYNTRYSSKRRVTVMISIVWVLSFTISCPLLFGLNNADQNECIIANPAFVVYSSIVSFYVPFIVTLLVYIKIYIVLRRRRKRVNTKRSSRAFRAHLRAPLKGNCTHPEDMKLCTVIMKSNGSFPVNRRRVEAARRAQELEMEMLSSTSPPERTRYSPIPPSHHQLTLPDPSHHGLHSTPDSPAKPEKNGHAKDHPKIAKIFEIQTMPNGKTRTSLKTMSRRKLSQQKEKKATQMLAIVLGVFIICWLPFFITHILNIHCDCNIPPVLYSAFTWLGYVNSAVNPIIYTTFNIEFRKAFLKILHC
The target of the next assay is D2LR (Homo sapiens (Human), UniProt P14416). Description: β-Arrestin Recruitment Assay, CHO-K1 DRD2L. The class given is cell-based. Particulars: antagonist vs EC80 6 nM Pergolide, CHO-K1 DRD2L cells; read-out: D2 IC50. On the procedure: Antagonist potency of the compounds against agonist induced recruitment of β-arrestin by D3R and D2LR was measured using DiscoverRx PathHunter eXpress kits. […] After incubation at 37° C. for 90 min, the DiscoveRx detection reagent was added, the plates were incubated at room temperature for 60 min and the luminescence was measured on a Synergy 4 plate reader (BioTek). The data were plotted and the agonist EC80 values were calculated using GraphPad Prism software. For antagonist activity, the cells were plated as described above and treated with multiple concentrations (starting from 500 nM, half log dilution, 10 dose points) of the test compounds in Plating Reagent with 0.1% DMSO.
Chain of D2LR (P14416 whole entry): as above
In general terms: Activated receptors often draw arrestin, which recruitment assays turn into a signal.

In assay [1] the target is human D2 dopamine receptors (Homo sapiens (Human), UniProt P14416). Kind of assay: Whole Cell Adenylyl Cyclase Assay, D2. The class given is cell-based. The note with it: inhibition of forskolin (100 μM) stimulated cAMP, normalized to quinpirole; compound conc ≥10× Ki (per compound); mean ± S.E.M.
Chain of human D2 dopamine receptors (P14416 whole entry): as above
The target of assay [2] is T1, human D3 dopamine receptor (Homo sapiens (Human), UniProt P35462). Kind of assay: Radioligand binding (125I-IABN competition), D3. Particulars: 125I-IABN competition, HEK cell membranes expressing human D3. On the procedure:
(§1) The affinities of the target compounds were determined using radioligand binding experiments. […] Competition curves were modeled for a single site. Data from competition dose-response curves were analyzed using Tablecurve program (Jandel). IC50 values were converted to equilibrium dissociation constants (Ki values) using the Cheng and Prusoff correction.

Another assay concerns Long Evans rats. Description: Food self-administration under PR schedule of reinforcement. The format is in vivo, rat. Particulars: 3.75 mg dose vs 0; t(7)=0.43, p=0.66. On the procedure:
These studies were performed using Long Evans rats using standard protocols. Training and testing took place in ventilated and sound-attenuated operant chambers measuring 30×21×18 cm. Each chamber contained two levers, one light above each of the levers, and a food trough. Each lever was positioned 2.5 cm from the rod floor and the food trough (measuring 5×5 cm) was centered between the two levers. A different set of animals (n=8) was trained to press a lever reinforced by food under a FR1 schedule of reinforcement. […] Percentage of baseline BPs for food self-administration was analyzed using a dependent measures t-test comparing the 0 and 3.75 mg doses of 113.

Assay [3] has as its target T1, human D3 dopamine receptor. Kind of assay: Whole Cell Adenylyl Cyclase Assay, D3. Particulars: inhibition of forskolin (100 μM) stimulated cAMP, normalized to quinpirole; compound conc ≥10× Ki (per compound); mean ± S.E.M. The format is cell-based.
Assay [4] addresses human D2-long dopamine receptor (Homo sapiens (Human), UniProt P14416). Kind of assay: Radioligand binding (125I-IABN competition), D2. The note with it: HEK cell membranes expressing human D2-long. On the procedure:
as §1

T1 sequence (P35462 whole entry): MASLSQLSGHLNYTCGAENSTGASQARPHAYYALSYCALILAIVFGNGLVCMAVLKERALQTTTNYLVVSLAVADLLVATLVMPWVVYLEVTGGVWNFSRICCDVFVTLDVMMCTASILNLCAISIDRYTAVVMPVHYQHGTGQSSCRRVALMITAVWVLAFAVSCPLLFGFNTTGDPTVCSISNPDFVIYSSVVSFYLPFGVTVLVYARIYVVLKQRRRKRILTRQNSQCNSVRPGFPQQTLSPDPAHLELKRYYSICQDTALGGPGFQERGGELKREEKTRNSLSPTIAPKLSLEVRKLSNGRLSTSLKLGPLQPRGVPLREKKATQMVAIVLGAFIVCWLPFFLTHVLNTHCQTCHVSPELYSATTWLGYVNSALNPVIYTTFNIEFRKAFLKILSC
Chain of human D2-long dopamine receptor (P14416 whole entry): as the sequence (P14416 whole entry) above

Regarding `CC(C)(C)c1nc(N2CCN(CCCCNC(=O)c3cn4ccccc4n3)CC2)cc(C(F)(F)F)n1` [Compound 113, N-(4-(4-(2-(tert-Butyl)-6-(trifluoromethyl)pyrimidin-4-yl)piperazin-1-yl)butyl)imidazo[1,2-a]pyridine-2-carboxamide], the half-inhibitory concentration (IC50) was 2300 ± 1100 nM at human D2 receptors and 261 ± 54 nM at D2LR. Further, in assay [1], the “D2 Cyclase % Inhibition Normalized” value is −1.9 ± 13.3%. Moreover, the Ki in assay [2] was 4.2 ± 0.6 nM; in assay [4], 511 ± 65.6 nM. Further, the “percentage of baseline BPs for food self-administration under PR schedule” value with Long Evans rats is on record as “did not affect food self-administration”. The “D3 Cyclase % Inhibition Normalized” value in assay [3] was 27.7 ± 7.0%.
